Measurements as given in patent publication US10532028B2, “Method to improve characteristics of spray dried powders and granulated materials, and the products thereby produced” (ISP INVESTMENTS LLC, priority 2005, dated 2020).

Experiments:
[1] = CoQ10 USP dissolution, apparatus II (paddles); type: physicochemical; conditions: 37° C.
From the text: • 1. Coenzyme Q10 (CoQ10) was spray dried with polyvinylpyrrolidone (PVP) (Plasdone® K-29/32, International Specialty Products) in the ratio 1 CoQ10:3 PVP at 20% total solids. Two spray dried powders were produced, one from 100% dichloromethane (DCM) and the other from a blend of 80% DCM, 20% acetone. CoQ10 is soluble in both DCM and acetone, while PVP is only soluble in DCM. All other spray drying conditions remained the same. • 2. Sample analysis included USP dissolution using apparatus II (paddles). All samples were hand-filled into size 1 gelatin capsules. The bath temperature was 37° C. with a paddle speed of 50 rpm for the first 60 minutes and then 200 rpm for an additional 15 minutes. The dissolution media contained 2% Cremophor® EL (BASF Corp.), and 4% Acconon® MC8 (Abitec Corp.). […] It is surprising that the time for 50% CoQ10 dissolution (t50%) was shortened from 18 minutes (100% solvent) to 5 minutes (solvent/non-solvent blend). Similarly, the time for 80% CoQ10 dissolution (t80%) was shortened from 68 minutes to 12 minutes by the switch from 100% solvent to the solvent/non-solvent blend. • 4. […] Other advantages of the solvent/non-solvent blend approach include lower residual solvent content and higher density.

[2] = Crystallinity by (modulated) differential scanning calorimetry; type: physicochemical; conditions: MDSC, heat-only conditions, aluminum hermetic pans
Method: • 1. 1 part Carbamazepine (CBZ) was spray dried with 1 part polyvinylpyrrolidone (PVP) (Plasdone® K-29/32, International Specialty Products) and 1 part polyvinylpyrrolidone-co-vinyl acetate (PVP-VA) (Plasdone® S-630, International Specialty Products) from solvent and solvent/non-solvent solutions at 10% solids by weight. Solvent was dichloromethane (20%), non-solvent was acetone (80%). • 2. Spray drying was conducted on an SD-Micro® (Niro, Inc.) spray dryer under identical experimental conditions other than solvent composition. • 3. Results: • a. […] CBZ from solvent/non-solvent solution • 1) Particle morphology: spherical as shown in FIG. 2B. • 2) Particle size (from optical microscopy): 3 μm-5 μm • 3) Residual solvent immediately after spray drying: 2.0% • 4) Bulk density: 0.057 g/mL • 5) Density after 1250 taps: 0.18 g/mL • 6) Spherical morphology was unexpected, based on previous examples, expected particles to be dimpled, raisin-like, or folded.
• The two solutions were spray dried under identical conditions on an SD-Micro® (Niro, Inc.) spray dryer to yield spray dried powders. • 2. The two compositions were analyzed for EFV crystallinity using differential scanning calorimetry. Both powders were amorphous, as indicated by the absence of an EFV melt endotherm (FIG. 5). • 3. […]

[3] = Table 1, 75 minutes test, 2% Cremophor EL + 4% Acconon MC8

COC1=C(OC)C(=O)C(C/C=C(\C)CC/C=C(\C)CC/C=C(\C)CC/C=C(\C)CC/C=C(\C)CC/C=C(\C)CC/C=C(\C)CC/C=C(\C)CC/C=C(\C)CCC=C(C)C)=C(C)C1=O [CoQ10 (as received), Coenzyme Q10]
max. CoQ10 release ([1]; 50 rpm for 60 min then 200 rpm for 15 min, 2% Cremophor EL + 4% Acconon MC8, size 1 gelatin capsules): 4.3%
T80% (time for 80% CoQ10 dissolution) [1, 3]: not attained
t50% (time for 50% CoQ10 dissolution) [1, 3]: not attained
crystallinity [2]: 100%
